Test results published in patent US9777015B2, “Useful thiophene derivatives in the treatment of diabetes” (METABRAIN RESEARCH, priority 2012, dated 2017).
Where two headings read alike, the source gives them in different places.

Legend:
INS-1 cells = assay: Stimulation test of insulin secretion by INS-1 cells; assay type: cell-based; conditions: Rattus norvegicus, 1 h incubation, 3.5 mM glucose; for activity at 10 µM: INS1, compound at 10 μM, read-out: INS-1 % of ctrl @ 10 μM; for activity at 50 µM: INS1, compound at 50 μM, read-out: INS-1 % of ctrl @ 50 μM
Description: The different compounds were tested on an INS-1 beta-pancreatic line in order to evaluate their capability of potentializing the insulin secretion in response to glucose. Very briefly, the cells are cultivated in a culture medium, RPMI 1640 with 10 mM glucose containing 1 mM of sodium pyruvate, 50 μM of 2-mercaptoethanol, 2 mM of glutamine, 10 mM of HEPES, 100 IU/mL of penicillin, 100 μg/mL of streptomycin and 10% of inactivated fetal calf serum, as described by Asfari et al.. For the insulin secretion test, the INS-1 cells are sown and cultivated in 96-well plates. After 3 days of cultivation at 37° C. in a humid atmosphere (95% air/5% CO2), the medium is removed and the cells are incubated for 16 h in a medium containing 5 mM of glucose and 1% of inactivated fetal calf serum. On the day of the test, the cells are washed with a Krebs buffer (pH 7.4) containing 0.1% of bovine albumin and then pre-incubated for 30 min at 37° C. in this same buffer containing 2.8 mM of glucose. Finally, the cells are again washed with Krebs buffer and then incubated for 1 h in the buffer of the secretion test (Krebs, pH 7.4 containing 0.1% of bovine albumin and 3.5 mM of glucose and molecules to be evaluated). At the end of the test, the cell supernatant is recovered in order to measure therein the secreted insulin, by means of an ELISA kit using a rat anti-insulin antibody (ELISA Alpco Cat no. 80-INSRTH-E10). Each condition is tested in triplicate. The 3.5 mM glucose, the 10^−7M GLP-1 and the Forskoline 10^−7/IBMX 10^−5M mixtures are used as positive controls of the test. A compound stimulates the secretion of insulin if this factor is greater than or equal to 130% of the control for a given glucose dose.

[1] = test system: hepatocytes isolated from Wistar rat liver; assay: Test of inhibition of hepatic production of glucose (isolated hepatocytes, 3 h or 20 h incubation); assay type: cell-based; conditions: for activity at 50 µM / activity at 100 µM: Rattus norvegicus, Hepatocyte, hepatic glucose production, rat hepatocytes; for activity at 50 µM: compound at 50 μM, read-out: HGP % of ctrl @ 50 μM; for activity at 100 µM: compound at 100 μM, read-out: HGP % of ctrl @ 100 μM
Description: The hepatocytes are isolated from Wistar rat liver having fasted for 24 h after perfusion of collagenase in the portal vein. The freshly isolated hepatocytes are sown in 6-well plates coated with collagen and containing an adhesion medium (Williams Medium). After adhesion, the medium is replaced with RPMI 1640 medium without any glucose, containing hydrocortisone (7.10^−5M) for a duration from 16 to 18 h. The next day, the glucose hepatic production test is conducted in a Krebs medium for 3 h. The basal conditions are cells incubated with only Krebs, the stimulated conditions are the cells placed in Krebs+lactate+pyruvate, the produced conditions are the cells exposed to chemical compounds in a Krebs/lactate/pyruvate medium. In the case when the compounds are dissolved in DMSO, all the conditions of the tests are met in the presence of a final concentration of 0.1% DMSO. The positive control of the test is the mercaptopicolinate known for its inhibitory action on hepatic production of glucose via the phosphoenolpyruvate carboxykinase. For short term treatments, the compounds are incubated for 3 h. For long term treatments, the compounds are incubated for 20 h at the moment when the hepatocytes are cultivated in RPMI and then added during the hepatic production test for 3 h. At the end of the 3 hours of incubation, the supernatant is recovered for measurement of glucose with a colorimetric method using glucose oxidase. The cells are lysed with a 0.1% NaOH aqueous solution in order to measure the amount of protein with the Lowry method. The results are expressed in mmols of glucose per mg of protein.

SMILES | activity at 10 µM (INS-1 cells) | activity at 50 µM (INS-1 cells) | activity at 50 µM ([1]; 20 h, 20 h incubation) | activity at 100 µM ([1]; 20 h, 20 h incubation) | inhibition of hepatic production of glucose ([1]; 3 h incubation, with two doses) | activity at 50 µM ([1]; 3 h, 3 h incubation) | activity at 100 µM ([1]; 3 h, 3 h incubation)
CCOC(=O)Cc1cc(C(=O)c2ccccc2)sc1-c1ccc(Cl)cc1 [compound 15, ethyl 2-(5-benzoyl-2-(4-chloro-phenyl)thiophen-3-yl)acetate] | 150% | 160% | 63% | 32% |  |  | 
CCOC(=O)Cc1cc(C(=O)N2CCOCC2)sc1-c1ccc(Cl)cc1 [compound 114, ethyl 2-(2-(4-chlorophenyl)-5-(morpholine-4-carbonyl)thiophen-3-yl)acetate] | 150% |  |  |  |  |  | 
COc1ccc(S(=O)(=O)c2cc(CC(=O)O)c(-c3ccc(Cl)c(Cl)c3)s2)cc1 [compound 175, 2-[2-(3,4-dichlorophenyl)-5-(4-methoxyphenyl)sulfonyl-3-thienyl]acetic acid] | 106% | 145% |  |  | strongest inhibitions | 51% | 20%
O=C(O)Cc1cc(C(=O)c2ccco2)sc1-c1cccc(F)c1F [compound 136, 2-(2-(2,3-difluorophenyl)-5-(furan-2-carbonyl)thiophen-3-yl) acetic acid] | 120% | 158% | 64% | 43% |  |  | 
COc1ccc(C(=O)c2cc(CC(=O)OC(C)(C)C)c(-c3ccc(Cl)cc3)s2)cc1 [compound 84, tert-butyl 2-(2-(4-chlorophenyl)-5-(4-methoxybenzoyl)thiophen-3-yl)acetate] | 139% | 153% | 85% | 40% |  |  | 
CCOC(=O)Cc1cc(/C(=N/O)c2ccc(OC)cc2)sc1-c1ccc(Cl)cc1 [compound 104, ethyl 2-(2-(4-chlorophenyl)-5-((hydroxyimino)(4-methoxyphenyl)methyl)thiophen-3-yl)acetate] | 153% | 203% | 76% | 50% |  |  | 
CCOC(=O)Cc1cc(C(=NOC)c2ccc(OC)cc2)sc1-c1ccc(Cl)cc1 [compound 106, ethyl 2-(2-(4-chlorophenyl)-5-((methoxyimino)(4-methoxyphenyl)methyl)thiophen-3-yl)acetate] | 148% | 151% | 74% | 45% |  |  | 
C=C(C(=O)OCC)c1cc(C(=O)c2ccc(OC)cc2)sc1-c1ccc(Cl)cc1 [compound 187, ethyl 2-(2-(4-chlorophenyl)-5-(4-methoxybenzoyl)thiophen-3-yl)acrylate] | 152% | 120% |  |  |  |  | 
COc1ccc(C(=O)c2cc(CC(=O)NCCN(C)C)c(-c3ccc(Cl)cc3)s2)cc1 [compound 89, 2-(2-(4-chlorophenyl)-5-(4-methoxybenzoyl)thiophen-3-yl)-N-(2-(dimethylamino)ethyl)acetamide] | 171% |  |  |  |  |  | 
O=C(O)Cc1cc(C(=O)C2CCCCC2)sc1-c1ccccc1 [compound 52, 2-(5-(cyclohexanecarbonyl)-2-phenylthiophen-3-yl)acetic acid] | 127% | 140% |  |  |  | 61% | 44%
CN(C)CCNC(=O)Cc1cc(C(=O)c2ccco2)sc1-c1ccc(Cl)cc1 [compound 95, 2-(2-(4-chlorophenyl)-5-(furan-2-carbonyl)thiophen-3-yl)-N-(2-(dimethylamino)ethyl)acetamide] | 144% | 147% |  |  |  |  | 
CCOC(=O)Cc1cc(C(=O)C2CCCCC2)sc1-c1ccc(Cl)cc1 [compound 14, ethyl 2-(2-(4-chlorophenyl)-5-(cyclohexanecarbonyl)thiophen-3-yl)acetate] | 152% | 165% |  |  |  | 91% | 73%
CCOC(=O)C(C)c1cc(C(=O)c2ccc(OC)cc2)sc1-c1ccc(Cl)cc1 (stereo not drawn) [compound 123, ethyl 2-(2-(4-chlorophenyl)-5-(4-methoxybenzoyl)thiophen-3-yl)propanoate] | 168% | 166% |  |  |  | 101% | 63%
CCOC(=O)Cc1cc(C(=O)c2cscn2)sc1-c1ccc(OC)cc1 [compound 33, ethyl 2-(2-(4-methoxyphenyl)-5-(thiazole-4-carbonyl)thiophen-3-yl)acetate] | 199% | 280% |  |  |  |  | 
N#Cc1ccc(-c2sc(C(=O)c3ccco3)cc2CC(=O)O)cc1 [compound 140, 2-(2-(4-cyanophenyl)-5-(furan-2-carbonyl)thiophen-3-yl)acetic acid] | 123% | 188% |  |  |  |  | 
CCOC(=O)Cc1cc(C(=O)CCCCl)sc1-c1ccc(OC)cc1 [compound 37, ethyl 2-(5-(4-chlorobutanoyl)-2-(4-methoxyphenyl)thiophen-3-yl)acetate] | 157% | 107% |  |  |  |  | 
N#CCc1cc(C(=O)c2ccco2)sc1-c1ccc(F)cc1 [compound 145, 2-(2-(4-fluorophenyl)-5-(furan-2-carbonyl)thiophen-3-yl)acetonitrile] | 125% | 145% |  |  |  |  | 
O=C(c1ccco1)c1cc(CC(=O)N2CCOCC2)c(-c2ccc(Cl)cc2)s1 [compound 91, 2-(2-(4-chlorophenyl)-5-(furan-2-carbonyl)thiophen-3-yl)-1-morpholino ethanone] | 184% | 152% |  |  |  |  | 
CCOC(=O)Cc1cc(C(=O)c2ccco2)sc1-c1ccc(C#N)cc1 [compound 139, ethyl 2-(2-(4-cyanophenyl)-5-(furan-2-carbonyl)thiophen-3-yl)acetate] | 183% | 247% |  |  |  |  | 
COc1ccc(C(=O)c2cc(CC(=O)N3CCN(C)CC3)c(-c3ccc(Cl)cc3)s2)cc1 [compound 93, 2-(2-(4-chlorophenyl)-5-(4-methoxybenzoyl)thiophen-3-yl)-1-(4-methylpiperazin-1-yl)ethanone] | 149% |  |  |  |  |  | 
COc1ccc(C(=O)c2cc(CC(=O)NCCO)c(-c3ccc(Cl)cc3)s2)cc1 [compound 96, 2-(2-(4-chlorophenyl)-5-(4-methoxybenzoyl)thiophen-3-yl)-N-(2-hydroxyethyl)acetamide] | 177% |  |  |  |  |  | 
COc1ccc(-c2sc(C(=O)c3cccc(OC)c3)cc2CC(=O)OCC2O[C@H]3OC(C)(C)O[C@H]3[C@H]3OC(C)(C)O[C@@H]23)cc1 (stereo partly drawn) [compound 85, ((3aS,5aS,8aS,8bS)-2,2,7,7-tetramethyltetrahydro-3aH-bis([1,3]dioxolo)[4,5-b:4′,5′-d]pyran-5-yl)methyl 2-(5-(3-methoxy-benzoyl)-2-(4-methoxy-phenyl)thiophen-3-yl)acetate] | 146% |  |  |  |  |  | 
CCOC(=O)Cc1cc(C(=O)c2cccc(OC)c2)sc1-c1ccc(OC)cc1 [compound 30, ethyl 2-(5-(3-methoxybenzoyl)-2-(4-methoxyphenyl)thiophen-3-yl)acetate] | 157% |  |  |  |  |  | 
CN(C)CCNC(=O)Cc1cc(C(=O)c2ccco2)sc1-c1cccc(C#N)c1 [compound 142, 2-(2-(3-cyanophenyl)-5-(furan-2-carbonyl)thiophen-3-yl)-N-(2-(dimethylamino)ethyl)acetamide] | 117% | 175% |  |  |  |  | 
COCC(C(=O)OC(C)C)c1cc(C(=O)c2ccc(OC)cc2)sc1-c1ccc(Cl)cc1 (stereo not drawn) [compound 125] | 154% | 126% |  |  |  |  | 
